Consider one molecule from patent US20020107193A1, “Therapeutic uses for IP3 receptor-mediated calcium channel modulators” (priority 2000, published 2002).

SMILES strings stand for the structures. Entries after “also recorded” stand apart in the source; their conditions may differ.

Assay [1] deals with macrophage-tropic CCR5-utilizing HIV CSF. The experiment in a line: p24 antigen in media of HIV-infected peripheral blood lymphocytes. It counts as cell-based. The conditions noted are these: for p24 levels, of controls: day 2. Here is the method:
Peripheral blood lymphocytes, previously stimulated for 72 hours with PHA, were divided into 3 groups, designated T-HIV (RPMI-10 media containing 1 μM XeC and 0.1% DMSO), N-HIV (RPMI-10 media containing 0.1% DMSO) and HIV (RPMI-10 media). […] The cells were then infected with a macrophage-tropic CCR5-utilizing HIV CSF for 3 hours at 37° and then washed to remove excess virus. All groups were cultured in RPMI-10% FCS+10U/ml IL-2. Referring to FIGS. 7-11, cells were incubated at 37° C. in 5% CO2. At stated time points shown in the aforementioned figures, spent media was removed and replace with fresh media. The media was tested for the presence of p24 antigen as a surrogate for HIV infection and replication. […] The significance of using the CCR5 utilizing macrophage-tropic virus JR-CSF is that this is the type of virus generally transmitted sexually.

The test system of assay [2] is NF-κB. Kind of assay: EMSA of NF-κB binding activity in cultured primary cortical neurons. Format: cell-based, rat. Here is the method: Cerebral cortices were removed from embryonic day 18 Sprague-Dawley rats (Harlan, Indianapolis, Ind.). Cells were dissociated as described previously (Mattson et al., 1995, J. Neurochem. 65:1740-1751.) and were seeded into polyethyleneimine-coated 60 mm culture dishes containing Eagle's Minimum Essential Medium supplemented with 26 mM NaHCO3, 40 mM glucose, 20 mM KCl, 1 mM sodium pyruvate, 10% (v/v) heat-inactivated fetal bovine serum (Sigma, St. Louis, Mo.), and 0.001% gentamycin sulfate. After a 3-5 h incubation period to allow for cell attachment, the medium was replaced with 2 ml of Neurobasal Medium with B27 supplements (GIBCO Life Technologies, Grand Island, N.Y.). […] Experimental treatments were performed on 7-to-9-day-old neuronal cultures in which there were approximately 5% contaminating glial cells.
Total cell extracts were prepared as described (Baeuerle and Baltimore, 1988, Cell 53:211-217). Briefly, cells were harvested, washed twice with ice-cold PBS and lysed for 30 min at 4° C. in Totex buffer (20 mM HEPES, pH 7.9, 350 mM NaC1, 20% glycerol, 1% NP-40, 1 mM MgC12, 0.5 mM EDTA, 0.1 mM EGTA, 5 mM DTT, 0.1% PMSF, 1% aprotinin, 4 μg/ml leupeptin). Samples were centrifuged at 14,000× g for 10 min and aliquots of supernatant were collected and stored at −70° C. until taken for assay. The protein content of the extract (supernatant) was measured by Bradford method (BIO-RAD Laboratories, Ercules, Calif., USA).
After 20 min at room temperature, reaction products were separated on a 7% non-denaturing polyacrylamide gel. Competition experiments were performed by incubating extracts with labeled oligonucleotide probe in the presence of 100-fold molar excess unlabeled NF-KB or CREB oligonucleotide. To characterize the NF-KB complexes, supershift assays were performed. Extracts were preincubated for 45 min at room temperature with antibodies recognizing either p50 or p65 sub-units of NF-κB (Santa Cruz Biotechnology, Santa Cruz, Calif.) or c-Fos (Oncogene Research Products, Cambridge, Mass.). The mixtures were further incubated with ^32P-labeled probe and resolved as described above. Radioactivity of dried gels was detected by exposure to Kodak X-Omat film and images on the developed film were scanned into a computer using a UMAX 1200s scanner. Densitometry was performed using Scion Image software (Scion Inc., Frederick, Md.). Paint Shop Pro software (JASC Inc. Minneapolis, Minn.) was used for preparation of the final figures.
The possible involvement of endoplasmic reticulum pools of intracellular calcium regulated by IP3 receptors in controlling basal levels of NF-κB was investigated using Xestospongin C (XeC) a specific membrane permeable modulator of IP3-mediated Ca^2+release (Gafni et al., 1997, Neuron 19:723-733; Hu et al., 1999, J. Biol. Chem. 274:33995-33998), and thapsigargin (Tg), a specific inhibitor of ER calcium/ATPase (Thastrup et al., 1990, Proc. Natl. Acad. Sci. USA 87:2466-2470; Davidson and Varhol, 1995, J. Biol. Chem. 270:11731-11734.). Cultured primary cortical neurons were treated with either 1 μM XeC, 100 nM Tg or vehicle for 6 h and protein extracts were analyzed for NF-κB binding activity by EMSA electrophoresis.

For `C1CCC[C@H]2CCCN3CC[C@@H](CCCCCC[C@@H]4CCCN5CC[C@@H](CC1)O[C@@H]45)O[C@@H]23` [XeC, Xestospongin C], in assay [1] (1 μM XeC, 0.1% DMSO, overall statement), the “p24 antigen as surrogate for HIV infection and replication, relative to DMSO” value is recorded as “inhibition”. Also, the “p24 levels, of controls” value in assay [1] (X1: XeC once 2 hours pre-infection, FIG. 7) is given as about 50%; in assay [1] (X2: XeC 2 hours pre-infection and 6 hours post-infection, FIG. 7) it was “approximately 80%”. The p24 levels entry in assay [1] (X1: XeC once 2 hours pre-infection, day 3, FIG. 7) is “increased to approximately control levels”; in assay [1] (X1: XeC once pre-infection, day 3, third experiment, FIG. 10) it was “reduced relative to D1 and D2”; in assay [1] (X1: XeC once pre-infection, day 4, third experiment, FIG. 10) it was “increased to near control levels”; in assay [1] (X1: XeC once pre-infection, subsequent experiment, FIG. 8), “no effect was seen”; in assay [1] (X2: XeC pre- and post-infection, day 3, FIG. 7) it was “increased to approximately control levels”; in assay [1] (X2: XeC pre- and post-infection, day 3, third experiment, FIG. 10) it was “reduced relative to D1 and D2”. In addition, the p24 levels result in assay [1] (X2: XeC pre- and post-infection, day 4, FIG. 9) is reported as “increase to near wild-type levels”; in assay [1] (X2: XeC pre- and post-infection, days 2 and 3, subsequent experiment, FIG. 8) it was “greatly reduced”. Further, the “p24 levels, of the DMSO controls” value in assay [1] (X2: XeC pre- and post-infection, day 4, third experiment, FIG. 10) is “approximately 50%”. In assay [2] (1 μM XeC 30 min prior to 100 ng/ml TNFα for 6 h), the “effect on TNFα-induced NF-κB activation” value was “completely abolished; also recorded: significantly inhibited”. Besides, in assay [2] (1 μM XeC pretreatment, 100 nM Tg, 6 h), the “effect on thapsigargin-induced elevation in NF-κB binding” value was “completely abolished the elevation”. For the same molecule, in assay [2] (1 μM XeC pretreatment, 20 μM glutamate, 6 h), the “effect on glutamate-induced elevation in NF-κB binding” value is “completely abolished the elevation; also recorded: NF-κB binding below that of control; also recorded: totally abolish this induction”. Besides, the “basal NF-κB binding activity relative to control levels” value in assay [2] (cultured primary cortical neurons, 6 h, 1 μM XeC or 100 nM Tg, EMSA) is given as “statistically significant (p<0.05) reduction; also recorded: can inhibit basal levels of NF-κB binding”.
